Patent US12428420B2, “Tricyclic heterocycles as FGFR inhibitors” (Incyte Corporation, priority 2021, dated 2025)

Key:
RT-112/84 cell line = experiment: Luminescent Viability Assay (CellTiter-Glo); format: cell-based; details: RT-112/84 cell line (bladder, FGFR3-TACC3), 3 days
Method: RT112 cells (cell lines and genetic profiles further detailed in Table 2) were purchased from ATCC (Manassas, VA) and maintained in RPMI, 10% FBS (Gibco/Life Technologies). To measure the effect of test compounds on the viability of cells, the cells were plated with RPMI 10% FBS (5×10^3 cells/well/in 50 μL) into black 96-well Greiner polystyrene in the presence or absence of 50 μL of a concentration range of test compounds. After 3 days, 100 μL of CellTiter-Glo Reagent (Promega) was added. Luminescence was read with a TopCount (PerkinElmer). IC50 determination was performed by fitting the curve of percent inhibition versus the log of the inhibitor concentration using the GraphPad Prism 5.0 software.

[1] = target: wild-type un-phosphorylated FGFR3 protein (Homo sapiens, UniProt P22607); experiment: FGFR Enzymatic Assay (FRET peptide phosphorylation); format: biochemical; details: pre-incubated for 4 hours
Chain of wild-type un-phosphorylated FGFR3 protein (P22607 23-806): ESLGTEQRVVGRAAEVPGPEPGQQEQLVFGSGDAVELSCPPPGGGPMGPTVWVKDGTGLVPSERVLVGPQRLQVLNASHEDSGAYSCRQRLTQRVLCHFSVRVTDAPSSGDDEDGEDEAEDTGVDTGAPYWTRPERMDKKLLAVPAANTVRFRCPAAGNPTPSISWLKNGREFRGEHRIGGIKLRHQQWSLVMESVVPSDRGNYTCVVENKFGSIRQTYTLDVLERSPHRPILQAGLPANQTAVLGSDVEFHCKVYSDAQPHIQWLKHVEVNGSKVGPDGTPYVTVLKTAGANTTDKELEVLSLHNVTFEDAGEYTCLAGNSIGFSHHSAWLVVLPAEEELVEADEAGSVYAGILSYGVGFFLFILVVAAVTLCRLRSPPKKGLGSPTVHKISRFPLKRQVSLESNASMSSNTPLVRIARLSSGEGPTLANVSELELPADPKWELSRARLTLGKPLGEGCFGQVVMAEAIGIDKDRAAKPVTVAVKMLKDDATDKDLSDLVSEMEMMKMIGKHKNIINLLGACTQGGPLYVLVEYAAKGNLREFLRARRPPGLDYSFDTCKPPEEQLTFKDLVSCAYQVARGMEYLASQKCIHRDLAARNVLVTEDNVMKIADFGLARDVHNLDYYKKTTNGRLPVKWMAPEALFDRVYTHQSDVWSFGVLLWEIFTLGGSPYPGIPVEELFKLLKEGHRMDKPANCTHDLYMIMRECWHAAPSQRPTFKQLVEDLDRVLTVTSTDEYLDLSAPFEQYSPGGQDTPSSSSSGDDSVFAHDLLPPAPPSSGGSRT
Method: The inhibitor potency of the exemplified compounds was determined in an enzyme discontinuous assay that measures peptide phosphorylation using FRET measurements to detect product formation. Inhibitors were serially diluted in DMSO and a volume of 0.2 μL was transferred to the wells of a 384-well plate. A 5 μL/well volume of enzyme isoforms of FGFR (-1, -2, -3 wild-type and mutant isoforms, -4) including phosphorylated and un-phosphorylated proteins diluted in assay buffer (50 mM HEPES, 10 mM MgCl2, 1 mM EGTA, 0.01% Tween-20, 5 mM DTT, pH 7.5) was added to the plate and pre-incubated with inhibitor for 5 to 15 minutes at ambient temperature. Appropriate controls (enzyme blank and enzyme with no inhibitor) were included on the plate. The reaction was initiated by the addition of a 5 μL/well volume containing both biotinylated [sequence] peptide substrate (SEQ ID NO: 1) and ATP in assay buffer. The 10 μL/well reaction concentration of the peptide substrate was 500 nM whereas the ATP concentration was maintained near or below the ATP Km. The ATP Km values were pre-determined in a separate series of experiments. The reaction plate was incubated at 25° C. for 1 hr and the reactions were ended with the addition of 5 μL/well of quench solution (50 mM Tris, 150 mM NaCl, 0.5 mg/mL BSA, pH 7.8; 45 mM EDTA, 600 nM staurosporin, with Perkin Elmer Lance Reagents at 3.75 nM Eu-antibody PY20 and 180 nM APC-Streptavidin). The plate was allowed to equilibrate for ˜10 minutes at ambient temperature before scanning on a PheraStar plate reader (BMG Labtech) instrument.
Either GraphPad prism or XLfit was used to analyze the data. The IC50 values were derived by fitting the data to a four parameter logistic equation producing a sigmoidal dose-response curve with a variable Hill coefficient. Prism equation: Y=Bottom+(Top−Bottom)/(1+10^((Log IC50−X)*Hill slope)); XLfit equation: Y=(A+((B−A)/(1+((X/C)^D)))) where X is the logarithm of inhibitor concentration and Y is the response.

Structure (SMILES)	IC50 (RT-112/84 cell line; Homo sapiens, RT112/84, 72 h)	IC50 [1]	IC50 (RT-112/84 cell line)
OCCn1cc(-c2cnc3ccn4c(C(F)F)c(-c5c(Cl)cccc5Cl)nc4c3c2)cn1 [Example 31, 2-(4-(2-(2,6-Dichlorophenyl)-3-(difluoromethyl)imidazo[2,1-f][1,6]naphthyridin-9-yl)-1H-pyrazol-1-yl)ethan-1-ol]	< 10 nM	< 1 nM	
OCc1c(-c2c(Cl)cccc2Cl)nc2c3cc(-c4cnn(CC5(F)CCOCC5)c4)cnc3ccn12 [Example 25, (2-(2,6-Dichlorophenyl)-9-(1-((4-fluorotetrahydro-2H-pyran-4-yl)methyl)-1H-pyrazol-4-yl)imidazo[2,1-J][1,6]naphthyridin-3-yl)methanol]	< 10 nM	< 1 nM	
CC(C#N)n1cc(-c2cnc3ccn4c(C(F)F)c(-c5c(Cl)cccc5Cl)nc4c3c2)cn1 (centres unmarked) [Example 32, 2-(4-(2-(2,6-Dichlorophenyl)-3-(difluoromethyl)imidazo[2,1-f][1,6]naphthyridin-9-yl)-1H-pyrazol-1-yl)propanenitrile]	< 10 nM	< 1 nM	
CC(C#N)n1cc(-c2cnc3ccn4c(CO)c(-c5c(Cl)cccc5Cl)nc4c3c2)cn1 (single isomer, unassigned) [17 peak 2]		< 1 nM	< 10 nM
O=C(CO)N1CCN(Cc2ccc(-c3cnc4ccn5c(CO)c(-c6c(Cl)cccc6Cl)nc5c4c3)cc2)CC1 [Example 8, 1-(4-(4-(2-(2,6-Dichlorophenyl)-3-(hydroxymethyl)imidazo[2,1-f][1,6]naphthyridin-9-yl)benzyl)piperazin-1-yl)-2-hydroxyethan-1-one]	10 to 50 nM	1 to 5 nM	
Cc1cccc(Cl)c1-c1nc2c3cc(-c4cnn(C5CCN(C)CC5)c4)cnc3ccn2c1CO [Example 11, (2-(2-Chloro-6-methylphenyl)-9-(1-(1-methylpiperidin-4-yl)-1H-pyrazol-4-yl)imidazo[2,1-J][1,6]naphthyridin-3-yl)methanol]	10 to 50 nM	1 to 5 nM	
O=S1(=O)CCCC(n2cc(-c3cnc4ccn5c(CO)c(-c6c(Cl)cccc6Cl)nc5c4c3)cn2)C1 (single isomer, unassigned) [26 peak 2]		< 1 nM	< 10 nM
FC(F)c1c(-c2c(Cl)cccc2Cl)nc2c3cc(-c4cnn(C5CCOCC5)c4)cnc3ccn12 [Example 30, 2-(2,6-Dichlorophenyl)-3-(difluoromethyl)-9-(1-(tetrahydro-2H-pyran-4-yl)-1H-pyrazol-4-yl)imidazo[2,1-J][1,6]naphthyridine]	< 10 nM	< 1 nM	
CCn1cc(-c2cnc3ccn4c(CO)c(-c5c(Cl)cccc5Cl)nc4c3c2)cn1 [Example 15, (2-(2,6-Dichlorophenyl)-9-(1-ethyl-1H-pyrazol-4-yl)imidazo[2,1-f][1,6]naphthyridin-3-yl)methanol]	< 10 nM	1 to 5 nM	
CC(CC#N)n1cc(-c2cnc3ccn4c(CO)c(-c5c(Cl)cccc5Cl)nc4c3c2)cn1 (single isomer, unassigned) [23 peak 1]	10 to 50 nM	< 1 nM	
